This is an account of results in patent US20260306639A1, “DEGRADER FOR DECOMPOSING CMET PROTEIN, AND PHARMACEUTICAL COMPOSITION COMPRISING SAME” (INNOCURE THERAPEUTICS, INC., priority 2022, published 2026).

This assay deals with c-MET. The assay is described as follows: c-MET protein degradation (Simple Western), MKN-45 cells. The class given is cell-based, human. Conditions: MKN-45 gastric cancer cells, c-MET overexpressing; 24 hours. The protocol: In order to assess the resolution of the compound of the present invention for c-MET expressed in cells, cells were dispensed in a 12-well plate at a concentration of 2×10^5 cells/well, and then gastric cancer cell lines were treated with samples for 24 hours and lung cancer cell lines were treated for 48 hours. Cell lysates were collected using a scraper on ice, centrifuged at 4° C. 15,000 rpm for 30 min to obtain a protein-containing supernatant. Protein expression was then measured using the Simple Western Automated Western Blot System Abby instrument using 3 μg of protein for each sample. SDS and heat-induced denaturation proteins were separated by molecular weight, attached to capillary, reacted with anti-c-MET or anti-GAPDH antibodies, which are primary antibodies, and then reacted with HRP-conjugated secondary antibodies, and analyzed the protein expression signal with compass software. Protein expression was normalized based on the expression value of GAPDH, and protein development in each sample was measured as a percentage (%) based on 100% of samples treated with 0.1% DMSO carriers, and DC50 (concentration of a compound where 50% protein inhibition is achieved) was calculated from the change in protein expression amount due to compound treatment.

SMILES strings stand for the structures.

Turning to `N#Cc1cccc(-c2ccc(=O)n(Cc3cccc(-c4ncc(OCC5CCN(C(=O)CCOCCOCCOCCOCCNc6cccc7cnn(C8CCC(=O)NC8=O)c(=O)c67)CC5)cn4)c3)n2)c1` (centres unmarked) [ICT-0000907], the DC50 (in general, the concentration giving 50% degradation) was 100 to 1000 nM.
The same measure for `Cn1cc(-c2cnc3c(nnn3C[C@@H]3CN(c4ncc(-c5ccc(CN6CCN(C(=O)CCCNc7ccc8c(=O)n(C9CCC(=O)NC9=O)ncc8c7)CC6)cc5)cn4)CCO3)n2)cn1` (stereo partly drawn) [ICT-0000922, 3-{6-[(4-{4-[(4-{2-[(2S)-2-{[5-(1-methyl-1H-pyrazole-4-yl)-1H-[1,2,3]triazolo[4,5-b]pyrazine-1-yl]methyl}morpholine-4-il]pyrimidine-5-yl}phenyl)methyl]piperazine-1-yl}-4-oxobutyl)amino]-1-oxo-1,2-dihydroptalazine-2-yl}piperidine-2,6-dione]: below 100 nM.
In the case of `Cn1cc(-c2cnc3c(nnn3C[C@@H]3CN(c4ncc(-c5ccc(CN6CCN(C(=O)CCCCCNc7ccc8c(=O)n(C9CCC(=O)NC9=O)ncc8c7)CC6)cc5)cn4)CCO3)n2)cn1` (stereo partly drawn) [ICT-0000923, 3-{6-[(6-{4-[(4-{2-[(2S)-2-{[5-(1-methyl-1H-pyrazole-4-yl)-1H-[1,2,3]triazolo[4,5-b]pyrazine-1-yl]methyl}morpholine-4-day]pyrimidine-5-yl}phenyl)methyl]piperazine-1-yl}-6-oxohexyl)amino]-1-oxo-1,2-dihydrophthalazine-2-yl}piperidine-2,6-dione] it was below 100 nM; in that of `Cn1cc(-c2cnc3c(nnn3C[C@@H]3CN(c4ncc(-c5ccc(CN6CCN(C(=O)CCCCNc7ccc8c(=O)n(C9CCC(=O)NC9=O)ncc8c7)CC6)cc5)cn4)CCO3)n2)cn1` (stereo partly drawn) [ICT-0000924, 3-(6-((5-(4-(4-(2-((S)-2-((5-(1-methyl-1H-pyrazole-4-yl)-1H-[1,2,3]triazolo[4,5-b]pyrazine-1-yl)methyl)morpholino)pyrimidine-5-yl)benzyl)piperazine-1-yl)5-oxopentyl)amino)1-oxopthalazine-2(1H)-yl)piperidine-2,6-dione], below 100 nM; in that of `Cn1cc(-c2cnc3c(nnn3C[C@@H]3CN(c4ncc(-c5ccc(CN6CCN(C(=O)CCCCCCNc7ccc8c(=O)n(C9CCC(=O)NC9=O)ncc8c7)CC6)cc5)cn4)CCO3)n2)cn1` (stereo partly drawn) [ICT-0000925, 3-(6-((7-(4-(4-(2-((S)-2-((5-(1-methyl-1H-pyrazole-4-yl)-1H-[1,2,3]triazolo[4,5-b]pyrazine-1-yl)methyl)morpholino)pyrimidine-5-yl)benzyl)piperazine-1-yl)7-oxoheptyl)amino)1-oxopthalazine-2(1H)-yl)piperidine-2,6-dione], below 100 nM.
The same measure for `Cn1cc(-c2cnc3c(nnn3C[C@@H]3CN(c4ncc(-c5ccc(CN6CCN(C(=O)COCCOCCOCCNc7ccc8c(=O)n(C9CCC(=O)NC9=O)ncc8c7)CC6)cc5)cn4)CCO3)n2)cn1` (stereo partly drawn) [ICT-0000938, 3-[6-(12-{4-[(4-{2-[(2S)-2-{[5-(1-methyl-1H-pyrazole-4-yl)-1H-[1,2,3]triazolo[4,5-b]pyrazine-1-yl]methyl}morpholine-4-yl]pyrimidine-5-yl}phenyl)methyl]piperazine-1-yl}-12-oxo-4,7,10-trioxa-1-azadodecane-1-yl)-1-oxo-1,2-dihydroptalazine-2-yl]piperidine-2,6-dione]: above 1000 nM.
The molecule `Cn1cc(-c2cnc3c(nnn3C[C@@H]3CN(c4ncc(-c5ccc(CN6CCN(C(=O)COCCOCCOCCOCCNc7ccc8c(=O)n(C9CCC(=O)NC9=O)ncc8c7)CC6)cc5)cn4)CCO3)n2)cn1` (stereo partly drawn) [ICT-0000939, 3-[6-(15-{4-[(4-{2-[(2S)-2-{[5-(1-methyl-1H-pyrazole-4-yl)-1H-[1,2,3]triazolo[4,5-b]pyrazine-1-yl]methyl}morpholine-4-yl]pyrimidine-5-yl}phenyl)methyl]piperazine-1-yl}-15-oxo-4,7,10,13-tetraoxa-1-azpentadecane-1-yl)-1-oxo-1,2-dihydroptalazine-2-yl]piperidine-2,6-dione] returned a DC50 above 1000 nM.
The same measure for `Cn1cc(-c2cnc3c(nnn3C[C@@H]3CN(c4ncc(-c5ccc(CN6CCN(C(=O)CCOCCOCCNc7cccc8cnn(C9CCC(=O)NC9=O)c(=O)c78)CC6)cc5)cn4)CCO3)n2)cn1` (some centres unmarked) [ICT-0000940]: 100 to 1000 nM.
